Laboratory results from PubChem BioAssay (NCI).
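Growth conditions: 96-well plates. Treatment: test compound, 48 hours, 5 concentrations. Analysis: linear interpolation between bracketing concentrations; unreached endpoints set to highest concentration. GI50 = concentration required for 50% inhibition of growth. TGI is the concentration that stops growth completely.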

Legend:
Assay in all cases: growth of human tumour cells (NCI), 48 h
786-0 renal = test system: 786-0 renal
CCRF-CEM leukemia = test system: CCRF-CEM leukemia
EKVX NSCLC = test system: EKVX NSCLC
HCT-15 colon = test system: HCT-15 colon
LOX IMVI melanoma = test system: LOX IMVI melanoma
MCF7 breast = test system: MCF7 breast
NCI-H23 lung = test system: NCI-H23 lung
SK-OV-3 ovarian = test system: SK-OV-3 ovarian
SN12C renal = test system: SN12C renal
SNB-19 CNS = test system: SNB-19 CNS

SMILES | GI50 (786-0 renal) | TGI (786-0 renal) | GI50 (CCRF-CEM leukemia) | TGI (CCRF-CEM leukemia) | GI50 (EKVX NSCLC) | TGI (EKVX NSCLC) | GI50 (HCT-15 colon) | TGI (HCT-15 colon) | GI50 (LOX IMVI melanoma) | TGI (LOX IMVI melanoma) | GI50 (MCF7 breast) | TGI (MCF7 breast) | GI50 (NCI-H23 lung) | TGI (NCI-H23 lung) | GI50 (SK-OV-3 ovarian) | TGI (SK-OV-3 ovarian) | GI50 (SN12C renal) | TGI (SN12C renal) | GI50 (SNB-19 CNS) | TGI (SNB-19 CNS)
COc1cnccc1Nc1nc(-c2nn(Cc3c(F)cc(OCCO)cc3F)c3ccccc23)ncc1OC | 1.76 µM | 5.44 µM | 0.946 µM | > 100 µM | 13.5 µM | 61.6 µM | 2.63 µM | > 100 µM | 1.84 µM | 19.3 µM | 1.65 µM | 6.16 µM | 2.25 µM | 8.69 µM | 19.4 µM | 48 µM | 1.53 µM | 11.1 µM | 2.23 µM | 10.5 µM
CN(C)c1ccc2[nH]c3c(C(N)=O)cc(=O)c(=O)c=3oc2c1 | 3.19 µM | 22.2 µM | 0.472 µM | > 100 µM | 3.36 µM | 61.6 µM | 0.766 µM | > 100 µM | 0.334 µM | > 100 µM | 1.64 µM | 8.64 µM | 1.1 µM | 25.8 µM | 3.54 µM | > 100 µM | 1.95 µM | 7.23 µM | 2.34 µM | 9.81 µM
COc1ccc2c(c1)C(=O)c1c-2n(CCCN(C)C)c(=O)c2cc([N+](=O)[O-])ccc12 | < 0.01 µM | < 0.01 µM | < 0.01 µM | < 0.01 µM | 0.181 µM | 16.4 µM | 0.0239 µM | 1.29 µM | < 0.01 µM | 0.108 µM | < 0.01 µM | 0.338 µM | < 0.01 µM | 0.0849 µM | < 0.01 µM | 0.666 µM | < 0.01 µM | 10.7 µM | < 0.01 µM | 7.93 µM
C[C@]12CCC(=O)C[C@@H]1CC[C@@H]1[C@@H]2CC[C@]2(C)[C@@H](OC(=O)N(CCCl)N=O)CC[C@@H]12 | 0.118 µM | 3.66 µM | 0.207 µM | – | 4.88 µM | > 41.1 µM | 2.26 µM | 14 µM | 0.625 µM | 15.4 µM | 4.71 µM | > 45.6 µM | 1.32 µM | 25.4 µM | 1.41 µM | 13.6 µM | 0.734 µM | 17.9 µM | 0.411 µM | 17.8 µM
CN(CCCCCl)P(=O)(OCc1ccc([N+](=O)[O-])o1)OCC1OC(n2cc([N+](=O)[O-])c(=O)[nH]c2=O)CC1O (stereo not drawn) | 12.7 µM | > 100 µM | 66.8 µM | > 100 µM | > 100 µM | > 100 µM | > 100 µM | > 100 µM | 47.3 µM | > 100 µM | 22.8 µM | > 100 µM | 75.2 µM | > 100 µM | 96.4 µM | > 100 µM | 51.9 µM | > 100 µM | > 100 µM | > 100 µM
CCN1C(=O)N(CC)C2C1N=C(SC)N2/N=C/C=C/c1ccccc1OC (stereo not drawn) | 0.538 µM | 31.7 µM | 0.379 µM | > 48.2 µM | 0.581 µM | > 56.6 µM | 0.37 µM | > 35.7 µM | 0.564 µM | > 36.7 µM | 0.421 µM | > 39.4 µM | 0.51 µM | > 38.8 µM | 0.743 µM | > 59.5 µM | 0.512 µM | > 43.5 µM | 0.492 µM | > 39 µM
COc1cc(C(=O)O[C@H](C(=O)NCCCCNC(=O)[C@@H](OC(=O)c2cc(OC)cc3c(C)cccc23)[C@]2(C)CO2)[C@]2(C)CO2)c2cccc(C)c2c1 | – | 1.25 µM | < 0.01 µM | > 100 µM | 0.227 µM | 2.57 µM | 0.104 µM | 1.18 µM | < 0.01 µM | < 0.01 µM | < 0.01 µM | < 0.0355 µM | < 0.01 µM | 0.118 µM | 0.703 µM | 6.19 µM | 0.885 µM | 2.39 µM | 0.201 µM | 2.31 µM
C=CCSC(C)=O | – | > 100 µM | – | > 100 µM | – | > 100 µM | – | > 100 µM | – | > 100 µM | – | > 100 µM | – | > 100 µM | – | > 100 µM | – | > 100 µM | – | > 100 µM
